This series is classed as biochemical. How it is done: As an example of particulates for use in drug-delivery or diagnostic assay,liposomes encapsulating Calcein (Sigma) dye were prepared by the extrusion method of Biochim. Biophys. Acta (1985) 812; 55. Specifically, Phosphotidylcholine (12mg) and cholesterol (2mg) were evaporated to form a lipid film in a round bottom flask. The film was hydrated with 2ml of 120mM Calcein in 10mM sodium phosphate/120mM Sodium chloride buffer of pH 7.4. Liposomes were then prepared by ten times extrusion through a 0.2 micron polycarbonate filter using the reported method. Any non-encapsulated dye was removed by gel filtration on a PD-10 column.
In a typical assay a 2ml buffer containing a known concentration (depending on the activity) of a peptide prepared as in Example 1 is treated with 3µl liposomes prepared as in Example 2. The progress of dye leakage from the liposomes indicates release of the marker and is followed by recording an increase in fluorescence signal. The assay can be repeated in the presence of a binder. Where Calcein is used as the dye excitation and emission wavelengths of 490nm and 520nm were used. […]. The concentration of binder required to fully bind the peptide can be evaluated using series of binder concentration at fixed peptide concentrations or vice versa. […]

Turning to `CC[C@H](C)[C@H](NC(=O)CNC(C)=O)C(=O)NCC(=O)N[C@@H](C)C(=O)N[C@H](C(=O)N[C@@H](CC(C)C)C(=O)N[C@@H](CCCNC(=N)N)C(=O)N[C@H](C(=O)N[C@@H](CC(C)C)C(=O)N[C@H](C(=O)N[C@H](C(=O)NCC(=O)N[C@@H](CCCCNC(=O)CCCC[C@@H]1SC[C@@H]2NC(=O)N[C@@H]21)C(=O)N1CCC[C@H]1C(=O)N[C@@H](C)C(=O)N[C@@H](CC(C)C)C(=O)N[C@H](C(=O)N[C@@H](CO)C(=O)N[C@@H](Cc1c[nH]c2ccccc12)C(=O)N[C@H](C(=O)N[C@@H](CCCNC(=N)N)C(=O)N[C@@H](CCCNC(=N)N)C(=O)N[C@@H](CCCNC(=N)N)C(=O)N[C@@H](CCCNC(=N)N)C(=O)N[C@@H](CCC(N)=O)C(=O)N[C@@H](CCC(N)=O)C(N)=O)[C@@H](C)CC)[C@@H](C)CC)[C@@H](C)O)[C@@H](C)O)C(C)C)C(C)C` [biotin modified peptide of example 1b], the “stability of integrated system (single reagent) in the inactive form” value (Figure 4A, under 2hrs, avidin and liposomes in 2ml buffer) was “very stable with little or no leakage of the contents”. In addition, for the setting “Figure 4B, under 17hrs, nitroavidin and liposomes in 2ml buffer, biotin added at point X”, the “stability and activation of integrated system” value was “stable and activated specifically with ligand”.

(Values after patent EP0979243B1, “ACTIVATION OF PEPTIDES” (Anmat Technology Limited, priority 1997, dated 2006).)
